Measurements: patent publication US11179430B2, “Extracts from mother-of-thyme and the use i'hereof” (Finzelberg GmbH & Co. KG, priority 2012, dated 2021)

Test system: TNBS-induced colitis in Wistar rats
Test: In vivo TNBS test model (colitis in rats)
Description: Female Wistar rats (200-210 g) were kept in Makrolon cages in air-conditioned animal quarters with 12 hours light-dark cycle, fed standard rodent food and water ad libitum throughout the experiment. The rats are randomly assigned to six groups (n=10). Two groups (healthy and sick controls) obtain 1 ml of the administration medium orally, and the test groups obtain either 100 mg/kg BW of a wild thyme extract formulation according to Example 4, or 70 mg/kg BW of a wild thyme extract formulation according to Example 3, or 30 mg/kg BW of the prebiotic Nutriose, or 100 mg/kg BW sulfasalazine (SAZ) in the reference group. All test substances are administered once a day as a solution or suspension through a gastric tube for a period of 7 days. The administration of the test substances starts at the same day as the colitis induction. For this purpose, the rats are fasted over night, and then a colitis is induced in both the sick control group and the treatment groups with TNBS as follows: During a halothane anesthesia, a solution (10 mg of TNBS dissolved in 0.25 ml of ethanol 50% v/v) is injected from a Teflon cannula through the anus 8 cm deep into the intestine. The rats of the healthy control group are administered 0.25 ml of a PBS solution instead of the TNBS solution. The body weight, the water and food intake and the stool consistency are recorded daily during the testing period. One week after the start of the colitis induction, all the rats are sacrificed by an overdose of halothane, and the intestine is removed for evaluating the intestinal damage. The intestinal segment is cleaned from fat and mesenterium, and transferred to a filter paper. Each specimen is weighed, and its length is measured under a constant load (2 g), and the weight-to-length ratio is determined therefrom. Independently of the treatment employed, the intestine is evaluated macroscopically for visible damage on a scale of from 0 to 10 by two observers by means of previously defined criteria, which take the extension and severity of the damage into account. […]

For `O=C(O)c1cc(/N=N/c2ccc(S(=O)(=O)Nc3ccccn3)cc2)ccc1O` [Sulfasalazine, sulfasalazine], the IL-6 (100 mg/kg oral once a day, 7 days, colitic control 281.8 ± 26.8) was 222.0 ± 16.1 ng/g, the MPO (100 mg/kg oral once a day, 7 days, colitic control 8969.6 ± 1402.0) was 5591.5 ± 537.0 mU/g and the “significant influence on the parameters of Table 3, in words” value (doses as in Table 3, vs. colitic control) was “could not show significant improvements in all parameters”.
